{
  "source": "paper PMC8151276",
  "about": "“An Integrated Approach toward NanoBRET Tracers for Analysis of GPCR Ligand Engagement” (Molecules, 2021)",
  "key": {"[1]": {"molecular_target": "T1, FZD6 (Homo sapiens, UniProt O60353)", "T1 construct": "purchased Promega (in-house HiBiT-GPCR construct library, NanoBRET)", "T1 sequence (O60353 19-706)": "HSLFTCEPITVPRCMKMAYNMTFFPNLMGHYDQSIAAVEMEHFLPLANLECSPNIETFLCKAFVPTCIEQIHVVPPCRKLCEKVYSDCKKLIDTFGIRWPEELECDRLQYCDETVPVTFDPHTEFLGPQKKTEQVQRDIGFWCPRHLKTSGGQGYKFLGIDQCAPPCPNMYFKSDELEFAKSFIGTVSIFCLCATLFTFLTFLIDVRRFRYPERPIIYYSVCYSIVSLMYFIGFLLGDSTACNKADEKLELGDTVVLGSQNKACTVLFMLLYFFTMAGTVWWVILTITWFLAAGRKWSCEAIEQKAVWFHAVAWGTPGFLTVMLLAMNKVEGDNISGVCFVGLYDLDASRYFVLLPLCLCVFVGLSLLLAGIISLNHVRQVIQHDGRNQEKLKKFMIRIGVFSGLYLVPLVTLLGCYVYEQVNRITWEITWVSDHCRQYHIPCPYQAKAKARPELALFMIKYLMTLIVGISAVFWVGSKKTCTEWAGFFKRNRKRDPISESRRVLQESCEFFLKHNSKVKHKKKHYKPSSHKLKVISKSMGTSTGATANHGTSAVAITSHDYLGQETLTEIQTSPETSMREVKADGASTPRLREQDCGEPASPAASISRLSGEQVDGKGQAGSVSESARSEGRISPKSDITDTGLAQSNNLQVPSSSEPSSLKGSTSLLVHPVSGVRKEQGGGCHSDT", "assay": "NanoBRET screen HiBiT-FZD6 in HEK293", "type": "binding", "method": "(§1) Each tracer candidate was screened across the entire library of HiBiT-GPCR constructs using NanoBRET as the detection modality. As depicted in Figure 4A, the specificity of interactions was evaluated through decrease in BRET due to competitive displacement of a bound tracer by excess parental compound. Each tracer was analyzed for binding to each HiBiT-GPCR fusion in the absence and in the presence of competing parental compound. Briefly, HEK293 cells were transfected with HiBiT-GPCR constructs diluted into promoterless DNA to reduce expression and maximize translocation to the cell surface. Each tracer candidate was then screened at concentrations of 1 μM and 0.1 μM across cells expressing these fusions. Cells were treated for 1.5 h with tracer either alone or in the presence of 20 μM competing parental compound (i.e., control). BRET was measured upon addition of purified LgBiT and subsequent complementation with HiBiT genetically fused to a GPCR. The specificity of interactions was assessed through a decrease in BRET signal due to competitive displacement of the bound tracer. To further gauge the robustness of these interactions, the fold response over the control (i.e., BRETtracer/BRETcontrol) was calculated. We chose a 1.5-fold response, which translates to ≥7-fold signal over noise as the minimal threshold required to score an interaction as positive. […]. Below we highlight the screening results obtained for our exemplary fluorescent tracers based on Clozapine, Amitriptyline and AZD1283.\n(§2) HiBiT-GPCR DNA constructs were diluted in 10 mM Tris pH 8 to a final concentration of 0.01 μg/μL, arrayed in 96-well plates and stored at −20 °C. For transfection, HEK293 cells were suspended in Opti-MEM (without phenol red) supplemented with 2% fetal bovine serum (Seradigm) and 100 units/mL penicillin–streptomycin (Gibco) at a final concentration of 220,000 cells/mL and dispensed into white 96-well plates at 90 μL/well. Subsequent transfections and screens were carried using an Agilent Bravo Automated Liquid Handling Platform. First, the 96-well HiBiT DNA arrays were diluted 25-fold in Opti-MEM (without serum or phenol red) to a final concentration of 0.0004 μg/μL and 20 μL of the diluted DNAs were transferred into new 96-well plates. Next, promoterless carrier DNA (1 μg/μL) was diluted 25-fold (0.04 μg/μL) and then dispensed into the diluted arrays at 20 μL/well. Following brief mixing, Viafect transfection reagent (Promega) diluted 16-fold into Opti-MEM was dispensed into the plates at 40 μL/well. After mixing by pipetting, plates were incubated for 10 min on the pipetting station deck. The DNA-transfection reagent complexes were then added to plates containing cells. To facilitate the screen, 10 μL of DNA-transfection reagent complexes were added in duplicates to the top 4 and bottom 4 rows, resulting in two identical 48-well arrays per plate. Plates with transfected cells were incubated for 18–20 h at 37 °C/5% CO2. A screen of each tracer across the entire library using two different concentrations requires duplicate plates of transfected cells. Depending on the number of tracers being screened, transfections can be scaled up using the same ratios. The next day, for each tracer, four 20× screening solutions in tracer dilution buffer (Promega) were prepared: two duplicates at final concentration of 20 μM and two duplicates at a final concentration of 2 μM. A competing unmodified compound was added to one of each duplicate at a final concentration of 400 μM. The four resulting solutions were diluted 4-fold in Opti-MEM without serum or phenol red to generate 5× solutions (5 µM and 0.5 µM tracer +/− 100 μM competing compound). To screen the library, a BioTek MultiFlo FX liquid dispenser was used to dispense 22.5 µL of tracer solution to the top 4 rows and 22.5 µL tracer + competing compound solution to the 4 bottom rows. Plates were briefly mixed on an orbital shaker and incubated for 1.5 h at room temperature. […]"}, "[2]": {"molecular_target": "T2, GALR3 (Homo sapiens, UniProt O60755)", "T2 construct": "purchased Promega (in-house HiBiT-GPCR construct library, NanoBRET)", "T2 sequence (O60755 1-368)": "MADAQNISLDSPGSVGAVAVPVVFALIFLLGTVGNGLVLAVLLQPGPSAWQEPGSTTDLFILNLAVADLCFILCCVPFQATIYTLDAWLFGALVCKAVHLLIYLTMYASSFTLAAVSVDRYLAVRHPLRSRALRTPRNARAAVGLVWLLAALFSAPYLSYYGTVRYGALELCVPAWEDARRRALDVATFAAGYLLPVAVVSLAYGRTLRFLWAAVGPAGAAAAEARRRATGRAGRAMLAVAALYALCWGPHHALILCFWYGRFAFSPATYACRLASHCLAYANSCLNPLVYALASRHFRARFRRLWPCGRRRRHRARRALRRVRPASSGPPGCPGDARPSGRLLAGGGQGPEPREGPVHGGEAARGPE", "assay": "NanoBRET screen HiBiT-GALR3 in HEK293", "type": "binding", "method": "as §1, §2"}},
  "data": [
    {"compound": "O=C(CCc1ccc2n1[B-](F)(F)[N+]1=C(c3ccc[nH]3)C=CC1=C2)NCc1ccc(C(=O)NCCOCCC(=O)N[C@@H]2CC[C@@]3(O)[C@H]4Cc5ccc(O)c6c5[C@@]3(CCN4CC3CC3)[C@H]2O6)cc1", "note": "[Naltrexone-3-NB590]", "values": [
      {"measurement": "NanoBRET Fold Response", "setting": "[1]; FZD6, tracer 0.1μM", "result": 0.94},
      {"measurement": "NanoBRET Fold Response", "setting": "[1]; FZD6, tracer 1μM", "result": 1.10},
      {"measurement": "NanoBRET Fold Response", "setting": "[2]; GALR3, tracer 0.1μM", "result": 1.03},
      {"measurement": "NanoBRET Fold Response", "setting": "[2]; GALR3, tracer 1μM", "result": 1.01}
    ]},
    {"compound": "COc1ccccc1N1CCN(CCCCN2C(=O)c3ccc(CNC(=O)CCOCCNC(=O)c4ccc(CNC(=O)CCc5ccc6n5[B-](F)(F)[N+]5=C(c7ccc[nH]7)C=CC5=C6)cc4)cc3C2=O)CC1", "note": "[NAN-190-3-NB590]", "values": [
      {"measurement": "NanoBRET Fold Response", "setting": "[1]; FZD6, tracer 0.1μM", "result": 0.95},
      {"measurement": "NanoBRET Fold Response", "setting": "[1]; FZD6, tracer 1μM", "result": 1.13},
      {"measurement": "NanoBRET Fold Response", "setting": "[2]; GALR3, tracer 0.1μM", "result": 0.97},
      {"measurement": "NanoBRET Fold Response", "setting": "[2]; GALR3, tracer 1μM", "result": 0.92}
    ]},
    {"compound": "Cc1cc2c(s1)Nc1ccccc1N=C2N1CCN(CCCNC(=O)CCOCCOCCOCCOCCNC(=O)CCc2ccc3n2[B-](F)(F)[N+]2=C(c4ccc[nH]4)C=CC2=C3)CC1", "note": "[Olanzapine-a-2-NB590]", "values": [
      {"measurement": "NanoBRET Fold Response", "setting": "[1]; FZD6, tracer 0.1μM", "result": 1.03},
      {"measurement": "NanoBRET Fold Response", "setting": "[1]; FZD6, tracer 1μM", "result": 0.98},
      {"measurement": "NanoBRET Fold Response", "setting": "[2]; GALR3, tracer 0.1μM", "result": 1.12},
      {"measurement": "NanoBRET Fold Response", "setting": "[2]; GALR3, tracer 1μM", "result": 0.87}
    ]},
    {"compound": "CCCn1c(=O)c2[nH]c(-c3ccc(OCC(=O)NCCNC(=O)CCOCCNC(=O)c4ccc(CNC(=O)CCc5ccc6n5[B-](F)(F)[N+]5=C(c7ccc[nH]7)C=CC5=C6)cc4)cc3)nc2n(CCC)c1=O", "note": "[XAC-3-NB590]", "values": [
      {"measurement": "NanoBRET Fold Response", "setting": "[1]; FZD6, tracer 0.1μM", "result": 0.95},
      {"measurement": "NanoBRET Fold Response", "setting": "[1]; FZD6, tracer 1μM", "result": 1.05},
      {"measurement": "NanoBRET Fold Response", "setting": "[2]; GALR3, tracer 0.1μM", "result": 1.01},
      {"measurement": "NanoBRET Fold Response", "setting": "[2]; GALR3, tracer 1μM", "result": 1.04}
    ]},
    {"compound": "COc1ccc2c(n1)c(CCNC(C)=O)cn2CCNC(=O)CCc1ccc2n1[B-](F)(F)[N+]1=C(c3ccc[nH]3)C=CC1=C2", "note": "[Azamelatonin-1-NB590]", "values": [
      {"measurement": "NanoBRET Fold Response", "setting": "[1]; 0.1μM tracer", "result": 1.09},
      {"measurement": "NanoBRET Fold Response", "setting": "[1]; 1μM tracer", "result": 0.86},
      {"measurement": "NanoBRET Fold Response", "setting": "[2]; 0.1μM tracer", "result": 0.81},
      {"measurement": "NanoBRET Fold Response", "setting": "[2]; 1μM tracer", "result": 1.05}
    ]}
  ]
}
